Legend:
Format in all cases: in vivo
Settings in all cases: Rate 1000 g/ha; evaluated after 13 days
[1] = tested on: Lolium perenne (LOLPE); test: B2a post-emergence herbicidal activity
Protocol: (§1) Seeds of a variety of test species were sown in standard soil in pots: Amaranthus retroflexus (AMARE), Setaria faberi (SETFA), Zea mays (ZEAMX), Abutilon threophrasti (ABUTH), Echinochloa crus-galli (ECHCG), Lolium perenne (LOLPE). After 8 days cultivation (post-emergence) under controlled conditions in a glasshouse (at 24/16° C., day/night; 14 hours light; 65% humidity), the plants were sprayed with an aqueous spray solution derived from the formulation of the technical active ingredient in acetone/I water (50:50) solution containing 0.5% Tween 20 (polyoxyethelyene sorbitan monolaurate, CAS RN 9005-64-5). The test plants were then grown in a glasshouse under controlled conditions (at 24/16° C., day/night; 14 hours light; 65% humidity) and watered twice daily. After 13 days, the test was evaluated (5=total damage to plant; 0=no damage to plant).

[2] = tested on: Zea mays (ZEAMX); test: B2a post-emergence herbicidal activity
Protocol: as §1

[3] = tested on: Amaranthus retroflexus (AMARE); test: B2a post-emergence herbicidal activity
Protocol: as §1

[4] = tested on: Echinochloa crus-galli (ECHCG); test: B2a post-emergence herbicidal activity
Protocol: as §1

[5] = tested on: Abutilon threophrasti (ABUTH); test: B2a post-emergence herbicidal activity
Protocol: as §1

[6] = tested on: Setaria faberi (SETFA); test: B2a post-emergence herbicidal activity
Protocol: as §1

[7] = tested on: Lolium perenne (LOLPE); test: B1a pre-emergence herbicidal activity
Protocol: as §1, with “After” for “After 8 days”, “for one day (pre-emergence)” for “(post-emergence)”, “acetone/water” for “acetone/I water”, “plant). Results are shown below in Table 4” for “plant).”

[8] = tested on: Zea mays (ZEAMX); test: B1a pre-emergence herbicidal activity
Protocol: as §1, with “After” for “After 8 days”, “for one day (pre-emergence)” for “(post-emergence)”, “acetone/water” for “acetone/I water”, “plant). Results are shown below in Table 4” for “plant).”

[9] = tested on: Amaranthus retroflexus (AMARE); test: B1a pre-emergence herbicidal activity
Protocol: as §1, with “After” for “After 8 days”, “for one day (pre-emergence)” for “(post-emergence)”, “acetone/water” for “acetone/I water”, “plant). Results are shown below in Table 4” for “plant).”

[10] = tested on: Echinochloa crus-galli (ECHCG); test: B1a pre-emergence herbicidal activity
Protocol: as §1, with “After” for “After 8 days”, “for one day (pre-emergence)” for “(post-emergence)”, “acetone/water” for “acetone/I water”, “plant). Results are shown below in Table 4” for “plant).”

[11] = tested on: Abutilon threophrasti (ABUTH); test: B1a pre-emergence herbicidal activity
Protocol: as §1, with “After” for “After 8 days”, “for one day (pre-emergence)” for “(post-emergence)”, “acetone/water” for “acetone/I water”, “plant). Results are shown below in Table 4” for “plant).”

[12] = tested on: Setaria faberi (SETFA); test: B1a pre-emergence herbicidal activity
Protocol: as §1, with “After” for “After 8 days”, “for one day (pre-emergence)” for “(post-emergence)”, “acetone/water” for “acetone/I water”, “plant). Results are shown below in Table 4” for “plant).”

CC(C)OC(=O)Nc1cc(-c2cncnc2)nn1C(F)F [Compound A58, isopropyl N-[2-(difluoromethyl)-5-pyrimidin-5-yl-pyrazol-3-yl]carbamate]
Control of LOLPE after post-emergence application (damage score 0-5) [1]: 1
Control of ZEAMX after post-emergence application (damage score 0-5) [2]: 1
Control of AMARE after post-emergence application (damage score 0-5) [3]: 0
Control of ECHCG after post-emergence application (damage score 0-5) [4]: 1
Control of ABUTH after post-emergence application (damage score 0-5) [5]: 0
Control of SETFA after post-emergence application (damage score 0-5) [6]: 3
Control of LOLPE after pre-emergence application (damage score 0-5) [7]: 0
Control of ZEAMX after pre-emergence application (damage score 0-5) [8]: 0
Control of AMARE after pre-emergence application (damage score 0-5) [9]: 0
Control of ECHCG after pre-emergence application (damage score 0-5) [10]: 1
Control of ABUTH after pre-emergence application (damage score 0-5) [11]: 0
Control of SETFA after pre-emergence application (damage score 0-5) [12]: 2

CCOC(=O)C(=O)N(C)c1cn(-c2cncnc2)nc1C(F)(F)F [Compound A43]
Control of LOLPE after post-emergence application (damage score 0-5) [1]: 0
Control of ZEAMX after post-emergence application (damage score 0-5) [2]: 2
Control of AMARE after post-emergence application (damage score 0-5) [3]: 1
Control of ECHCG after post-emergence application (damage score 0-5) [4]: 1
Control of ABUTH after post-emergence application (damage score 0-5) [5]: 2
Control of SETFA after post-emergence application (damage score 0-5) [6]: 1
Control of LOLPE after pre-emergence application (damage score 0-5) [7]: 0
Control of ZEAMX after pre-emergence application (damage score 0-5) [8]: 0
Control of AMARE after pre-emergence application (damage score 0-5) [9]: 0
Control of ECHCG after pre-emergence application (damage score 0-5) [10]: 0
Control of ABUTH after pre-emergence application (damage score 0-5) [11]: 0
Control of SETFA after pre-emergence application (damage score 0-5) [12]: 0

CC(C)OC(=O)N(C)c1cc(-c2cncnc2)nn1C(F)F [Compound A59, isopropyl N-[2-(difluoromethyl)-5-pyrimidin-5-yl-pyrazol-3-yl]-N-methyl-carbamate]
Control of LOLPE after post-emergence application (damage score 0-5) [1]: 0
Control of ZEAMX after post-emergence application (damage score 0-5) [2]: 2
Control of AMARE after post-emergence application (damage score 0-5) [3]: 0
Control of ECHCG after post-emergence application (damage score 0-5) [4]: 1
Control of ABUTH after post-emergence application (damage score 0-5) [5]: 0
Control of SETFA after post-emergence application (damage score 0-5) [6]: 3
Control of LOLPE after pre-emergence application (damage score 0-5) [7]: 0
Control of ZEAMX after pre-emergence application (damage score 0-5) [8]: 2
Control of AMARE after pre-emergence application (damage score 0-5) [9]: 0
Control of ECHCG after pre-emergence application (damage score 0-5) [10]: 2
Control of ABUTH after pre-emergence application (damage score 0-5) [11]: 0
Control of SETFA after pre-emergence application (damage score 0-5) [12]: 3

CC(C)(C)OC(=O)Nc1cn(-c2cccnc2)nc1Cl [Compound A57]
Control of LOLPE after post-emergence application (damage score 0-5) [1]: 1
Control of ZEAMX after post-emergence application (damage score 0-5) [2]: 2
Control of AMARE after post-emergence application (damage score 0-5) [3]: 1
Control of ECHCG after post-emergence application (damage score 0-5) [4]: 2
Control of ABUTH after post-emergence application (damage score 0-5) [5]: 1
Control of SETFA after post-emergence application (damage score 0-5) [6]: 3
Control of LOLPE after pre-emergence application (damage score 0-5) [7]: 0
Control of ZEAMX after pre-emergence application (damage score 0-5) [8]: 1
Control of AMARE after pre-emergence application (damage score 0-5) [9]: 0
Control of ECHCG after pre-emergence application (damage score 0-5) [10]: 0
Control of ABUTH after pre-emergence application (damage score 0-5) [11]: 0
Control of SETFA after pre-emergence application (damage score 0-5) [12]: 0

Source: US10905123B2, “Herbicidal compounds” (Syngenta Participations AG, priority 2015, dated 2021)
